Measurements from patent publication US20210177814A1, “USE OF GUANABENZ OR DERIVATES THEREOF FOR THE TREATMENT OF TYPE I IFN-DEPENDENT PATHOLOGIES” (INSERM (Institut National de la Santé et de la Recherche …, priority 2018, published 2021).

Tested on: endosomal TLRs
Assay: TMPD (pristane) + CpG ODN induced SLE model
Format: in vivo, mouse
Protocol: At day 7 mice were injected with CpG ODN 1585 (50 μg/20 g). Blood was collected once a month to dose the circulating autoantibodies level. Mice were sacrificed at week 24 after disease induction. (A) Flow cytometry analysis of peritoneum exudate cells populations (PEC) at day 14. […] Statistical significance was assigned using two tailed Student's t test (* p<0.05). (C) Level of circulating anti-RNA antibodies (normalized to control mice), anti-nuclear antibodies (arbitrary units), presence of lipogranulomas in the peritoneal cavity (arbitrary score) and glomerulopathy (histological score blindly determined by an anatomopathologist) at week 24. Statistical significance was assigned by a one-way ANOVA, followed by Tukey range test (* p<0.05;** p<0.005; ***p<0.0005.). N.S., not significant. n values in the figure indicate the number of mice.
Wild type female mice C57BL/6 of 6 weeks of age were injected i.p. with 500 μL of TMPD (Sigma Aldrich) or PBS. From day 1 to day 13 mice were injected i.p. every 2 days with GBZ or PBS/DMSO 2 mg/kg. Mice were injected i.p. at day 7 with ODN 1585 or PBS 50 μg/20 g of mouse. Mice were sacrificed at day 14 or after 6 months. At day 14, peritoneal exudate cells (PEC) were taken for flow cytometry analysis. After 6 months kidneys were taken for immunohistochemistry. During 6 months, blood serum collection was effectuated once a month, from month 2 after the injection of TMPD up to one week before the animal sacrifice. Serum was used to evaluate the concentration of circulating autoantibodies. Anti-RNA ELISA. Evaluation of autoantibodies against RNA was performed by coating ELISA plates with 50 μl/well of 5 μg/ml mouse RNA or DNA in PBS and incubated overnight at 4° C. Next day, the plates were incubated with 1:50 or 1:100 diluted serum samples in working solution (PBS+0.05% Tween20+1% BSA), and the assay was developed with HRP-labeled goat anti-mouse IgG (Southern Biotech).
Mouse kidney and liver were fixed in 10% buffered formalin for 24 h, then the tissues were dehydrated and embedded in paraffin. Tissue sections of 3.5 μm were cut using the microtom Leica RM2245. Hematoxylin-eosin staining was effectuated automatically with Leica autostainer XL. Finally, the slides were mounted with entellan and kept at room temperature. Biopsies were analyzed by an anatomopathologist and the clinical score was assigned in a blinded way. Pictures were taken with Nikon Eclipse.

[1] = 22 weeks after TMPD injection, vs TMPD and CpG only

For `NC(N)=N/N=C/c1c(Cl)cccc1Cl` [GBZ, 2-(2,6-dichlorobenzylidene)-hydrazinecarboximidamide], the “circulating anti-RNA immunoglobulins titer” value [1] was “substantially lower”, the “circulating anti-nuclear immunoglobulins titer” value [1] was “substantially lower” and the “Ig-complexes deposits in the kidneys (glomerulonephritis)” value (C57BL/6, control vs GBZ-treated animals) was “unable to induce overall sufficient glomerulonephritis to observe significant differences”. For the same compound, the “lipogranulomas in the peritoneal cavity” value (GBZ-treated vs TMPD and CpG only) was “considerably smaller numbers”, the “transcriptional up-regulation of TNF-α, ISG 15 and CH25H in PECs (qPCR)” value (TMPD+CpG injected mice, recurrent GBZ injections) was “strongly inhibited” and the “immune cells migration into or from the peritoneal cavity (PEC flow cytometry)” value (day 14, GBZ 2 mg/kg i.p. every 2 days, day 1 to 13) was “did not prevent”.
